{
  "source": "patent US6309630A",
  "about": "“Non-steroidal anti-inflammatory ophthalmic suspensions” (Insite Vision Incorporated, priority 1994, dated 2001)",
  "experiment": "Percent Diclofenac Sodium in Suspension (dependence on concentration and pH)",
  "type": "physicochemical",
  "details": "below a pH of about 6.8; formulation containing 1% diclofenac sodium",
  "text": "The solubility of non-steroidal anti-inflammatory agents is pH dependent, i.e., normally the higher the pH, the higher the solubility of the drug in the formulation. […] Formulating the composition as a suspension rather than as a solution inhibits immediate contact between the drug and tissues of the eye and in that way reduces the stinging and burning sensation experienced when a solution of such drugs places all of the drug in immediate contact with the ocular tissues.\nThus, by providing at least some of the diclofenac in suspension, via pH control, lower transient burning and stinging would be observed when administered to patients.",
  "data": [
    {"compound": "O=C(O)Cc1ccccc1Nc1c(Cl)cccc1Cl", "note": "[Diclofenac Sodium, sodium ortho-(2,6-dichlorophenyl)aminophenylacetate acid]", "values": [
      {"measurement": "diclofenac in suspension (in words)", "value": "virtually all of the diclofenac in suspension"}
    ]}
  ]
}
